Experiments:
Assay type in all cases: in vivo
[1] = tested on: large crabgrass (Digitaria sanguinalis); assay: Test A preemergence, large crabgrass; settings: 0 to 100 scale (0 no effect, 100 complete control)
Summary of the method: (§1)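 Ratings of 0–100 (0 no effect, 100 complete control) came from visual comparison with untreated controls after roughly ten days in a greenhouse. Plants in loam soil–sand blend were treated with compound in non-phytotoxic solvent plus surfactant, pre- or postemergence (one- to two-leaf stage).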

[2] = tested on: ducksalad (Heteranthera limosa); assay: Test B flooded paddy test, ducksalad; settings: Flood, scale 0 to 100
Summary of the method: (§2)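 Rice, umbrella sedge, ducksalad and barnyardgrass at 2-leaf stage; pots flooded to 3 cm, compounds applied into paddy water, depth held throughout. Greenhouse 13 to 15 days, then visual rating vs untreated controls on 0–100 scale (0 no effect, 100 complete control); dash means no test result.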

[3] = tested on: velvetleaf (Abutilon theophrasti); assay: Test A preemergence, velvetleaf; settings: 0 to 100 scale (0 no effect, 100 complete control)
Summary of the method: as §1

[4] = tested on: barnyardgrass (Echinochloa crus-galli); assay: Test B flooded paddy test, barnyardgrass; settings: Flood
Summary of the method: as §2

rice (Oryza sativa) = assay: Test B flooded paddy test, rice; settings: Flood, scale 0 to 100
Summary of the method: as §2

[5] = tested on: umbrella sedge (Cyperus difformis); assay: Test B flooded paddy test, umbrella sedge; settings: Flood, scale 0 to 100
Summary of the method: as §2

corn (Zea mays) [6] = assay: Test A preemergence, corn; settings: 0 to 100 scale (0 no effect, 100 complete control)
Summary of the method: as §1

[7] = tested on: morningglory (Ipomoea spp.); assay: Test A preemergence, morningglory; settings: 0 to 100 scale (0 no effect, 100 complete control)
Summary of the method: as §1

[8] = tested on: wheat (Triticum aestivum); assay: Test A postemergence, wheat; settings: 0 to 100 scale (0 no effect, 100 complete control)
Summary of the method: as §1

[9] = tested on: large crabgrass (Digitaria sanguinalis); assay: Test A postemergence, large crabgrass; settings: 0 to 100 scale (0 no effect, 100 complete control)
Summary of the method: as §1

corn (Zea mays) [10] = assay: Test A postemergence, corn; settings: 0 to 100 scale (0 no effect, 100 complete control)
Summary of the method: as §1

[11] = tested on: pigweed (Amaranthus retroflexus); assay: Test A preemergence, pigweed; settings: 0 to 100 scale (0 no effect, 100 complete control)
Summary of the method: as §1

[12] = tested on: wheat (Triticum aestivum); assay: Test A preemergence, wheat; settings: 0 to 100 scale (0 no effect, 100 complete control)
Summary of the method: as §1

[13] = tested on: morningglory (Ipomoea spp.); assay: Test A postemergence, morningglory; settings: 0 to 100 scale (0 no effect, 100 complete control)
Summary of the method: as §1

[14] = tested on: giant foxtail (Setaria faberi); assay: Test A postemergence, giant foxtail; settings: 0 to 100 scale (0 no effect, 100 complete control)
Summary of the method: as §1

[15] = tested on: velvetleaf (Abutilon theophrasti); assay: Test A postemergence, velvetleaf; settings: 0 to 100 scale (0 no effect, 100 complete control)
Summary of the method: as §1

[16] = tested on: giant foxtail (Setaria faberi); assay: Test A preemergence, giant foxtail; settings: 0 to 100 scale (0 no effect, 100 complete control)
Summary of the method: as §1

[17] = tested on: pigweed (Amaranthus retroflexus); assay: Test A postemergence, pigweed; settings: 0 to 100 scale (0 no effect, 100 complete control)
Summary of the method: as §1

[18] = tested on: barnyardgrass (Echinochloa crus-galli); assay: Test A preemergence, barnyardgrass; settings: 0 to 100 scale (0 no effect, 100 complete control)
Summary of the method: as §1

[19] = tested on: barnyardgrass (Echinochloa crus-galli); assay: Test A postemergence, barnyardgrass; settings: 0 to 100 scale (0 no effect, 100 complete control)
Summary of the method: as §1

Structure (SMILES): CC1(C)CC([S+]([O-])Cc2c(C(F)(F)C(F)(F)F)nc3n(c2=O)CCCS3)=NO1 (stereo not drawn) [Compound 40]
- Plant response rating, Crabgrass, Large ([1]; 125 g ai/ha): 0
- Plant response rating, Crabgrass, Large ([1]; 500 g ai/ha): 70
- Plant response rating, Ducksalad ([2]; 31 g ai/ha): 0
- Plant response rating, Ducksalad ([2]; 62 g ai/ha): 0
- Plant response rating, Ducksalad ([2]; 125 g ai/ha): 0
- Plant response rating, Ducksalad ([2]; 250 g ai/ha): 0
- Plant response rating, Velvetleaf ([3]; 125 g ai/ha): 0
- Plant response rating, Velvetleaf ([3]; 500 g ai/ha): 0
- Plant response rating, Barnyardgrass ([4]; 31 g ai/ha, scale 0 to 100): 0
- Plant response rating, Barnyardgrass ([4]; 62 g ai/ha, scale 0 to 100): 0
- Plant response rating, Barnyardgrass ([4]; 125 g ai/ha, scale 0 to 100): 0
- Plant response rating, Barnyardgrass ([4]; 250 g ai/ha, scale 0 to 100 (0 no effect, 100 complete control)): 0
- Plant response rating, Rice (rice (Oryza sativa); 31 g ai/ha): 0
- Plant response rating, Rice (rice (Oryza sativa); 62 g ai/ha): 0
- Plant response rating, Rice (rice (Oryza sativa); 125 g ai/ha): 0
- Plant response rating, Rice (rice (Oryza sativa); 250 g ai/ha): 0
- Plant response rating, Sedge, Umbrella ([5]; 31 g ai/ha): 0
- Plant response rating, Sedge, Umbrella ([5]; 62 g ai/ha): 0
- Plant response rating, Sedge, Umbrella ([5]; 125 g ai/ha): 0
- Plant response rating, Sedge, Umbrella ([5]; 250 g ai/ha): 0
- Plant response rating, Corn (corn (Zea mays) [6]; 125 g ai/ha): 0
- Plant response rating, Corn (corn (Zea mays) [6]; 500 g ai/ha): 0
- Plant response rating, Morningglory ([7]; 125 g ai/ha): 0
- Plant response rating, Morningglory ([7]; 500 g ai/ha): 0
- Plant response rating, Wheat ([8]; 125 g ai/ha): 0
- Plant response rating, Wheat ([8]; 500 g ai/ha): 50
- Plant response rating, Crabgrass, Large ([9]; 125 g ai/ha): 0
- Plant response rating, Crabgrass, Large ([9]; 500 g ai/ha): 40
- Plant response rating, Corn (corn (Zea mays) [10]; 125 g ai/ha): 0
- Plant response rating, Corn (corn (Zea mays) [10]; 500 g ai/ha): 20
- Plant response rating, Pigweed ([11]; 125 g ai/ha): 0
- Plant response rating, Pigweed ([11]; 500 g ai/ha): 0
- Plant response rating, Wheat ([12]; 125 g ai/ha): 0
- Plant response rating, Wheat ([12]; 500 g ai/ha): 0
- Plant response rating, Morningglory ([13]; 125 g ai/ha): 0
- Plant response rating, Morningglory ([13]; 500 g ai/ha): 10
- Plant response rating, Foxtail, Giant ([14]; 125 g ai/ha): 0
- Plant response rating, Foxtail, Giant ([14]; 500 g ai/ha): 50
- Plant response rating, Velvetleaf ([15]; 125 g ai/ha): 0
- Plant response rating, Velvetleaf ([15]; 500 g ai/ha): 0
- Plant response rating, Foxtail, Giant ([16]; 125 g ai/ha): 0
- Plant response rating, Foxtail, Giant ([16]; 500 g ai/ha): 80
- Plant response rating, Pigweed ([17]; 125 g ai/ha): 0
- Plant response rating, Pigweed ([17]; 500 g ai/ha): 0
- Plant response rating, Barnyardgrass ([18]; 125 g ai/ha): 0
- Plant response rating, Barnyardgrass ([18]; 500 g ai/ha): 60
- Plant response rating, Barnyardgrass ([19]; 125 g ai/ha): 10
- Plant response rating, Barnyardgrass ([19]; 500 g ai/ha): 70

Source: US20100099561A1, “HETEROBICYCLIC ALKYLTHIO-BRIDGED ISOXAZOLINES” (E.I. DU PONT DE NEMOURS AND COMPANY, priority 2008, published 2010)
